This passage reports melting point results from a melting point compilation (Tetko et al.; mined from patent text by program, amines drawn as free bases though some values may be those of a salt).

As a reminder, the melting point is the temperature of the solid-liquid transition. `CC(C)(C)OC(=O)N1CCCN(c2ccc(N)cc2C#N)CC1` showed a melting point of 38 °C.
Under `O=c1ccc(-c2ccc([N+](=O)[O-])c(C(F)(F)F)c2)n[nH]1` stands 238 to 241 °C.
Turning to `COc1cc2c3ccc(OC)c(OC)c3n(S(C)(=O)=O)c2cc1OC`, the melting point is 164 to 165 °C.
Under `Fc1cccc2[nH]cc(C3CCC4(CC3)OCCO4)c12` stands 161 to 162 °C; under `Cc1ccc(-n2nc(C(=O)CCCO)cc2-c2ccc(S(C)(=O)=O)cc2)cc1`, 159 to 161 °C.
Under `N#Cc1c(-c2ccc(Cl)c(Cl)c2)[nH]c(I)c1I` stands more than 230 °C.
In turn, `CCCCCCCCCCCCCCCCCCCCSCCCO` had a melting point of 58 to 60 °C.
The same measure for `CC(=NNc1ccc([N+](=O)[O-])cc1)N1CCOCC1`: 176 °C; for `COc1ccccc1-n1c(=O)[nH]c2c(C(N)=O)nc(-c3cccc([N+](=O)[O-])c3)nc21`: 295 to 296 °C.
Under `Cc1ccc2ccc3ccccc3c2c1O` stands 88 to 92 °C; under `NC(=O)c1cc(C(=O)c2ccccc2)ccc1[N+](=O)[O-]`, 244 °C.
Under `CC(C)CCN1C(=O)C2(COc3cc(O)c(C(=O)C(F)(F)F)cc32)c2ccccc21` (configuration not stated) stands 87 to 88 °C; under `Cn1nnnc1S(=O)(=O)Cc1ccccc1`, 122 to 125 °C.
On to `CS(=O)c1csc(NC(=O)c2ccccc2O)n1` (configuration not stated), for which the melting point worked out at 240 °C.
On to `N#Cc1ccc(OCc2cccc(F)c2)cc1`, for which the melting point lay within 104 to 105 °C.
Under `COC(=N)N1CCC(c2nn(C)c3cc(F)ccc23)CC1` stands 132 to 135 °C.
The same measure for `COc1ccc(Br)cc1-c1cc(-c2ccc(Br)cc2)on1`: 127 to 159 °C; for `N#CCOc1cccc(CCNS(=O)(=O)c2ccc(Cl)cc2)c1`: 92 °C.
Compound `CCCCCCCC(=O)N(C)Cc1cc(-c2ccc(C=CC(=O)O)cc2)cs1` returned a melting point of 175 °C.
Under `CS(=O)(=O)c1ccc(-c2cc(F)c(F)cc2-c2ccc(F)cc2)cc1` stands 148 °C.
The same measure for `COc1ccc(OC)c(-c2cccc3c2OC(CN)C3)c1` (configuration not stated): 128 to 132 °C; for `Cc1c(N2CC(F)C(C3(N)CCC3)C2)c(F)c(N)c2c(=O)c(C(=O)O)cn(C3CC3F)c12` (configuration not stated): 177 to 184 °C.
The same measure for `Cc1c(C(=O)NCC(N)=O)cccc1-c1cccc2cc(Cc3cccc(C(F)(F)F)c3)sc12`: 124 to 125 °C.
`CCCOCCOC(=O)C(=O)Nc1nc(-c2ccccc2)cs1`: the melting point is 94 to 96 °C.
Under `Cn1cnc2nc(-c3ccc(C#N)cc3)nn2c1=S` stands more than 300 °C.
`Cc1nn2c(C(F)(F)F)cc(-c3cccc(C(F)(F)F)c3)nc2c1C#N` registered a melting point of 215 °C.
For the compound `CCC(CC)Oc1cc(C)nc(Nc2c(C)cc(C)cc2C)c1C`, the melting point lay in the range of 132 to 133 °C.
Under `O=C(O)C1=NC(c2ccc(Cl)cc2Cl)N(c2ccc(Cl)cc2)C1` (configuration not stated) stands 150 to 151 °C.
With `CCCn1ccnc1C(=O)Cc1ccc([N+](=O)[O-])cc1`, the melting point lay in the range of 95 to 96 °C.
The same measure for `O=C1CCC(N2Cc3c(OCc4ccc(CNC5CCCCC5)cc4)cccc3C2=O)C(=O)N1` (configuration not stated): 175 to 177 °C; for `COC1=C(OC)C(=O)C(CCCCCCCCCCO)=C(C)C1=O`: 52 °C; for `CC(C)(C)c1ccccc1-n1cnnc1C(F)(F)F`: 120 °C.
Under `O=C(O)c1nn(-c2ccc(Cl)cc2Cl)c2c1CCc1c(Br)csc1-2` stands 239 to 242 °C.
Under `C[C@@H](c1ccc(-c2ccc(C#N)cn2)cc1)N1CC[C@](CC(C)(C)O)(c2ccc(F)cc2)OC1=O` stands 155 to 157 °C; under `CN(C)CCCOc1ccc(-c2nn(CC(=O)OCc3ccccc3)c3ncccc23)cc1`, 90 to 92 °C; under `Cc1cc(F)ccc1NC(=O)CCC#Cc1cccc(CF)n1`, 122 to 125 °C.
Turning to `CC(=O)CCC1(C(C)C)Cc2cc(OCC(=O)O)c(Cl)c(Cl)c2C1=O` (configuration not stated), the melting point was 125 to 128 °C.
For the compound `Cc1cc(C(=O)NC2=NC(C)CC2(c2ccccc2)c2ccccc2)[nH]n1` (configuration not stated), the melting point fell in the range of 221 to 223 °C.
Under `NC(=O)c1cccc(OCCCCCCBr)c1` stands 115 to 117 °C; under `CC(Oc1cc(C(F)(F)F)cc(C(F)(F)F)c1)C(N)=O` (configuration not stated), 84 to 85 °C; under `CCCCCCCCCCCCCCCCCC(=O)N1C(CCCCCCCCCCCCCCCCC)NC(=O)CC1C(=O)O` (configuration not stated), 107 to 111 °C.
The same measure for `COC(=O)c1nccn1C(c1ccccc1)(c1ccccc1)c1ccccc1`: 186 to 188 °C; for `O=C(O)CN1C(=O)c2cccc3c(Sc4ccccc4)ccc(c23)C1=O`: 250 to 253 °C.
`COc1ccc(OC)c(-c2cccc(-n3cnc(-c4nc(C)no4)c3)c2)c1` gave a melting point of 127 to 129 °C.
The same measure for `CCC(C(O)c1ccc(Cl)cc1)n1ncn(-c2ccc(N3CCN(C(=O)NC)CC3)cc2)c1=O` (configuration not stated): 221 °C.
Under `CC(=O)Oc1cc(-c2ccccc2)oc(=O)c1Sc1ccccc1C(C)C` stands 113 to 115 °C; under `CCOC(=O)Nc1c(C#N)c(C(F)(F)F)nn1-c1c(Cl)cc(C(F)(F)F)cc1Cl`, 177 to 179 °C; under `COc1cccc(C(F)(F)F)c1S(=O)(=O)Cl`, 86 to 88 °C.
For the compound `COC(=O)C(=O)c1oc2cccc(OCc3ccc(F)cc3)c2c1O`, the melting point lay within 138 to 141 °C.
Under `CCOC(=O)C(C(=O)OCC)C(=O)C(C)Oc1ccc(Oc2ccc(C#N)cc2)cc1` (configuration not stated) stands 42 to 46 °C; under `ICCc1ccc2c(c1)OCO2`, 36 to 38 °C.
`CC(C)(C)c1ccc(C[C@@H](NC(=O)c2cccc3c(F)cccc23)[C@@H](O)c2ccc(F)cc2)cc1` (racemic) gave a melting point of 148 to 149 °C.
Under `Cc1ccc(S(N)(=O)=O)cc1-c1nc(C(F)(F)F)oc1-c1ccccc1` stands 150 to 151 °C; under `CCOC(=O)Cc1ccc(NC(=O)C(COS(C)(=O)=O)NS(=O)(=O)c2ccc(I)cc2)cc1` (racemic), 160 to 162 °C; under `COCc1cc(-c2ncn(-c3cccc(Oc4ccccc4)c3)c2C)on1`, 83 °C.
Under `C=CCC1(CC=C)c2cc(N(c3ccccc3)c3ccccc3)ccc2-c2ccc(N(c3ccccc3)c3ccccc3)cc21` stands 179 to 183 °C; under `O=C(NC(=O)c1c(Cl)cccc1Cl)Nc1ccc(-c2ccc(Cl)cc2)nc1`, 225 to 229 °C.
The same measure for `Cc1cc(C2=C(C=CC3CC(O)CC(=O)O3)C(C)(C)CC(OC(=O)Nc3ccccc3)C2)ccc1F` (configuration not stated): 73 to 75 °C; for `OC(c1ccccc1)(c1ccc(Cl)cc1)c1ncc[nH]1` (configuration not stated): 163 to 165 °C.
`CS(=O)(=O)Nc1cc(NC(=O)CN)c([N+](=O)[O-])cc1Oc1ccccc1` gave a melting point of 208 to 210 °C.
Under `CC(C)c1ccc(C(=O)Cc2ccsc2)c(C(C)C)c1OS(N)(=O)=O` stands 136 to 138 °C.
`CCOC(=O)/C=C/C1N(C(C)C)C(=O)c2ccccc2C1(O)c1ccc(F)cc1OC` (configuration not stated) yielded a melting point of 178 to 179 °C.
